{
  "source": "patent US9737563B2",
  "about": "“Magnesium compositions and uses thereof for neurological disorders” (Neurocentria, Inc., priority 2007, dated 2017)",
  "key": {"[1]": {"test": "Magnesium absorption rate in rats (metabolic cages, urine and feces magnesium by ICP-AES)", "settings": "Example 5, gluconate in skim milk or 5 weight percent lactose water, chloride in water", "protocol": "Fifty 3-month old, male Sprague Dawley (SD) rats were divided into five groups of ten rats. Rats of this age and older are considered adult. Each of the rats was placed in a separate metabolic cage equipped with urine- and feces-collecting wells. All of the rats were maintained in a temperature-controlled room (22° C. to 25° C.) with a dark period from 08:00 pm to 08:00 am daily. From day 1 through day 3, each rat was fed daily 15 g of magnesium-free food and de-ionized water. […] The medium was skim milk for Composition 1 and Group 1, milk prepared from powdered milk, by diluting the powdered milk with water to obtain a composition like that of skim milk, for Composition 2 and Group 2, 1% milk cream in water for Composition 3 and Group 3, water comprising 5 weight percent lactose for Composition 4 and Group 4, and water for the Control Composition and Control Group. […] From day 11 through day 12, each rat was fed daily 15 g of magnesium-free food and de-ionized water.\nFrom day 4 through day 10, urine from each rat was collected daily. The collected urine from each rat was then pooled together and the total volume of the pooled urine from each rat was recorded. The pooled urine from each rat, in an amount of […], was analyzed for magnesium content using an inductively coupled plasma-atomic emission spectrometer (ICP-AES). From day 5 to day 11, feces from each rat were collected daily. The collected feces from each rat were pooled together and the pooled feces were weighed and homogenized. The pooled feces from each rat, in an amount of 0.5 g, were analyzed for magnesium content using an ICP-AES.\nA formula was used to calculate a magnesium absorption rate for each rat. The formula used was Y=AX−B, wherein X was the average total daily magnesium intake, Y was the average net daily amount of magnesium absorbed, as calculated by X minus the average daily amount of magnesium excreted from feces, B was the average daily amount of magnesium excreted from feces when the magnesium intake was zero, and the slope A represented the magnesium absorption rate. Data points (X, Y) associated with each rat in each group often rats, with the exception of the best points and the worst points, were plotted. The value of A, the magnesium absorption rate, associated with each of Groups 1-4, and thus with each of the Compositions 1-4, was then obtained using linear regression. The value of A, the magnesium absorption rate, associated with the Control Group, and thus with the Control Composition, was also obtained using linear regression, and relabeled as A0. […]"}, "[2]": {"tested_on": "aging rats", "protocol": "Three groups of animals (young, aging, and magnesium-treated aging rats) were used. […] Spatial working memory was assessed using a T-maze non-matching-to-place task. […] Spatial working memory was first assessed on an elevated T-maze. The maze was located 1 m above the floor in a well lit laboratory that contained various prominent distal extra-maze cues. The rats were handled and habituated to the maze for 10 days, and to Froot Loop® cereal over several days before the test. Each trial consisted of a sample run and a choice run, with delay intervals of 15 s during the training and the pattern completion tasks. On the sample run, the rats were forced either left or right by the presence of the block, according to a pseudorandom sequence (with equal numbers of left and right turns per session, and with no more than two consecutive turns in the same direction). A cereal reward was available in the food well at the end of the arm. The block was then removed, and the rat was allowed a free choice of either arm. The animal was rewarded for choosing the previously unvisited arm. Rats were run one trial at a time with an inter-trial interval of 10 min. Each daily session consisted of 6 trials.\nThe rats were tested for 10 consecutive days on a rewarded forced-choice alternation task. The percentage of correct choices (alternations) was recorded for each daily session. […] Then, spatial working memory was tested by a gradual increase of the delay between the sample and the choice trials (FIG. 10, right panel)."}, "[3]": {"tested_on": "aging rats (12-14 months old)", "settings": "for novel object exploration preference: single training", "protocol": "In this example, the effect of magnesium supplementation on recognition memory was tested. Three groups of rats were used in these experiments: 1) young rats (three months old); aging rats (12-14 months old), and; 3) magnesium-treated aging rats (12-14 months old, diet supplemented with 6 mg/kg MgCl2 from 8 months of age). We used experimentally naive, female, Sprague-Dawley young […], aging (12-14 month old) and […] rats (Charles River) at the beginning of the behavior experiments. They were housed two per cage with continuous access to food and water under a 12:12 light-dark cycle, with light onset at 8:00 a.m. […] All experiments involving animals were approved by the Massachusetts Institute of Technology's and Tsinghua University Committees on Animal Care.\nThe three groups of rats were tested for recognition memory using an object recognition test with a single exposure to the object during training. The task is based on the natural tendency of rodents to explore new objects and tests the animals' memory capacity for distinguishing novel versus familiar objects.\nBriefly, the rats were first individually habituated to the personnel and then to open-field arena during 2 weeks. The rats were then allowed to explore two identical objects placed into the arena at fixed locations until they had accumulated 30 s of total inspection time (where this is defined as active exploration, sniffing or touching the object with the nose and/or forepaws) or for a maximum of 20 min. The rat was returned to the arena for the retention test and allowed to explore for another 30 sec. The retention intervals were 10 min and 24 hours. Objects were cleaned thoroughly between trials with 20% ethanol solution to ensure the absence of olfactory cues. The particular objects for a given trial were randomly determined, but each object was used for only one trial per rat. Memory of the familiar object is associated with increased exploration of the new object and an exploration index (% correct) is calculated as new object inspection time/30. […]"}, "[4]": {"tested_on": "AD mice", "test": "Morris water maze test, comparison with anti-AD drugs", "assay_type": "in vivo", "settings": "AD mice aged 13 months", "protocol": "Two known anti-AD drugs named […] memantine were administered separately to the mice. For these experiments, mice were tested for effects on memory and learning using the Morris water maze test, essentially as described in the previous example."}, "[5]": {"tested_on": "young (9-month old) and aged (25-month old) rats", "settings": "food containing 2% for 8 days, cited from earlier work"}, "[6]": {"tested_on": "diabetic patients", "settings": "nearly 1 g of magnesium daily for 1 month; cited from earlier work"}, "[7]": {"settings": "relatively high magnesium dosage"}, "[8]": {"settings": "relatively low magnesium dosage"}},
  "note": "Like-named read-outs stand apart in the source and are kept apart here.",
  "data": [
    {"compound": "magnesium gluconate", "values": [
      {"measurement": "magnesium absorption rate", "setting": "[1]; [7]", "value": "suitably close to those associated with the lower dosage compositions"},
      {"measurement": "magnesium absorption rate", "setting": "[1]; [8]", "value": "suitable magnesium absorption rates"}
    ]},
    {"compound": "[Cl-].[Cl-].[Mg+2]", "note": "[magnesium chloride]", "values": [
      {"measurement": "magnesium absorption rate", "setting": "[1]; [7]", "value": "less desirable"},
      {"measurement": "magnesium absorption rate", "setting": "[1]; [8]", "value": "suitable, but lower"},
      {"measurement": "spatial working memory with increased delay", "setting": "[2]; 2 and 5 min delays, p<0.05", "value": "significantly enhanced the performance of the aging rats at 2 and 5 min delays"},
      {"measurement": "percentage of correct choices during training", "setting": "[2]; 15 sec delay, versus untreated aging rats, p<0.05", "value": "performed significantly better from their first trials"},
      {"measurement": "asymptotic choice accuracy level", "setting": "[2]; after 8 days of training, all three groups", "value": "~94", "unit": "%"},
      {"measurement": "novel object exploration preference", "setting": "[3]; 10 minute retention interval, aging rats, 6 mg/kg from 8 months of age", "value": "preferentially explored the novel object to the same extent as young rats"},
      {"measurement": "novel object exploration preference", "setting": "[3]; 24 hours retention interval", "value": "lose there ability to distinguish novel versus familiar objects"},
      {"measurement": "novel object preference", "setting": "[3]; two training sessions separated by 10 minutes, 24-hour retention interval", "value": "retained a high level of preference"}
    ]},
    {"compound": "CC12CC3CC(C)(C1)CC(N)(C3)C2", "note": "[memantine]", "values": [
      {"measurement": "reducing the effects of AD on learning capacity", "setting": "[4]", "value": "better at reducing the effects of AD on learning capacity than aricept"}
    ]},
    {"compound": "[O]=[Mg]", "note": "[magnesium oxide]", "values": [
      {"measurement": "side-effect", "setting": "[5]", "value": "diarrhea and weight loss"},
      {"measurement": "cognitive function", "setting": "[5]; gain transient", "value": "some sign of improvement of cognitive function"},
      {"measurement": "metabolic control", "setting": "[6]", "value": "only minor improvement in metabolic control"}
    ]},
    {"compound": "COc1cc2c(cc1OC)C(=O)C(CC1CCN(Cc3ccccc3)CC1)C2", "note": "(stereo not drawn) [aricept]", "values": [
      {"measurement": "reducing the effects of AD on learning capacity", "setting": "[4]", "value": "both being better at reducing the effects of AD on learning capacity than aricept"}
    ]}
  ]
}
